From patent US11084829B2, “Ubiquitin-specific-processing protease 7 (USP7) modulators and uses thereof” (RAPT THERAPEUTICS, INC., priority 2018, dated 2021)

These molecules were tested against USP7 (Homo sapiens, UniProt Q93009) (assay: USP7 inhibitory potency (IC50)).
USP7, sequence (Q93009 whole entry): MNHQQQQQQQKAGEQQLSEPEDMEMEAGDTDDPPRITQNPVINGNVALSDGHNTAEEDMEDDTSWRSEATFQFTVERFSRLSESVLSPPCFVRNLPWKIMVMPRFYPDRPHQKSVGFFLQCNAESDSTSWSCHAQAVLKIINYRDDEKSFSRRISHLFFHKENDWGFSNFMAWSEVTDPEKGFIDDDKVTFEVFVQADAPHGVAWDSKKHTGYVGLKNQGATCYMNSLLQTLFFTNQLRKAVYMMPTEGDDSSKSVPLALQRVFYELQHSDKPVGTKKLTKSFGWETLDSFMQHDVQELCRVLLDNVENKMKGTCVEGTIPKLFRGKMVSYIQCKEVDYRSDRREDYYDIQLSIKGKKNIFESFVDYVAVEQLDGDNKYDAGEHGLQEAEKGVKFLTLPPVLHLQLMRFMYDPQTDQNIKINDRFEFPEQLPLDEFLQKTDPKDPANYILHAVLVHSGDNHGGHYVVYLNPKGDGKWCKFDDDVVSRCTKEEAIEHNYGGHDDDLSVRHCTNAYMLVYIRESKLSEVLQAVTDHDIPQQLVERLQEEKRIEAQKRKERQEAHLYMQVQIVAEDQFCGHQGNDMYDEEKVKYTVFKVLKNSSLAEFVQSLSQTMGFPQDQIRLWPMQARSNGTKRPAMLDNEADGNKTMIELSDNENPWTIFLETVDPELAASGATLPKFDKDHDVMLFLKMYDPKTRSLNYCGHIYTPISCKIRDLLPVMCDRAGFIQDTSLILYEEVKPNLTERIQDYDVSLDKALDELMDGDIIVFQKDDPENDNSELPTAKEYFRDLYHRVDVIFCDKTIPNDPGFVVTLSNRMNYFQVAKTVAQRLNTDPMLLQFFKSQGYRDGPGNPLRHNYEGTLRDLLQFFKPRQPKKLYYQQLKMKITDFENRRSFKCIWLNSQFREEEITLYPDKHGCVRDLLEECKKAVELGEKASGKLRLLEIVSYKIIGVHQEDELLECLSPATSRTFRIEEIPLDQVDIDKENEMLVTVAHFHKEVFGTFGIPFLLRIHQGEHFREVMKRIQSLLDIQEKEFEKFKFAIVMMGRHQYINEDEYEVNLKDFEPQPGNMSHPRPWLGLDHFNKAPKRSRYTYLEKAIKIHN
Assay type: biochemical
Experimental: Activity for compounds described herein is provided in Table 2, wherein potency levels are provided as follows: (Potency: USP7 IC50: A<0.01 μM; B=0.01-0.1 μM; C=>0.1 μM.
In the case of `Cc1cc(Cl)cc(-c2ccnc3cc(Cn4c(=O)ccn(CC(F)(F)F)c4=O)sc23)c1CN1CCNC(=O)C1` [Example 1, 3-((7-(5-chloro-3-methyl-2-((3-oxopiperazin-1-yl)methyl)phenyl)thieno[3,2-b]pyridin-2-yl)methyl)-1-(2,2,2-trifluoroethyl)pyrimidine-2,4(1H,3H)-dione], the IC50 is reported as > 100 nM.
`Cc1cc(Cl)cc(-c2ccnc3cc(CN4C(=O)CCCC4=O)sc23)c1CC1CNCCO1` (centres unmarked) [Example 107, 1-((7-(5-chloro-3-methyl-2-(morpholin-2-ylmethyl)phenyl)thieno[3,2-b]pyridin-2-yl)methyl)piperidine-2,6-dione] was tested, and the IC50 was < 10 nM.
`Cc1cc(Cl)cc(-c2ccnc3cc(CN4C(=O)CCC4=O)sc23)c1CN1CCCNCC1` [Example 17, 1-((7-(2-((1,4-diazepan-1-yl)methyl)-5-chloro-3-methylphenyl)thieno[3,2-b]pyridin-2-yl)methyl)pyrrolidine-2,5-dione] was tested, and the IC50 was < 10 nM.
For `Cc1cc(Cl)cc(-c2ncnc3cc(Cn4c(=O)ccn(C)c4=O)sc23)c1CC1CNCC2(CCC2)O1` (centres unmarked) [Example 223, 3-((4-(2-((5-oxa-8-azaspiro[3.5]nonan-6-yl)methyl)-5-chloro-3-methylphenyl)thieno[3,2-d]pyrimidin-6-yl)methyl)-1-methylpyrimidine-2,4(1H,3H)-dione], the IC50 was < 10 nM.
`Cc1cc(Cl)cc(-c2ccnc3cc(CN4C(=O)C5C(C4=O)C5(C)C)sc23)c1CN1C[C@@H](C)NC[C@@H]1C` (stereo partly drawn) [Example 39, 3-((7-(5-chloro-2-(((2S,5R)-2,5-dimethylpiperazin-1-yl)methyl)-3-methylphenyl)thieno[3,2-b]pyridin-2-yl)methyl)-6,6-dimethyl-3-azabicyclo[3.1.0]hexane-2,4-dione] was tested, and the IC50 was < 10 nM.
With `Cc1cc(Cl)cc(-c2ncnc3ccsc23)c1CC1CNCCO1` (centres unmarked) [Example 173, 2-(4-chloro-2-methyl-6-(thieno[3,2-d]pyrimidin-4-yl)benzyl)morpholine] the IC50 was > 100 nM.
In the case of `Cc1cc(Cl)cc(-c2ccnc3cc(Cn4c(=O)ccn(C)c4=O)sc23)c1CC1CNCC2(CCC2)O1` (centres unmarked) [Example 145, 3-((7-(2-((5-oxa-8-azaspiro[3.5]nonan-6-yl)methyl)-5-chloro-3-methylphenyl)thieno[3,2-b]pyridin-2-yl)methyl)-1-methylpyrimidine-2,4(1H,3H)-dione], the IC50 is reported as < 10 nM.
`Cc1cc(Cl)cc(-c2ncnc3cc(CN4C(=O)CCC4=O)sc23)c1CN1C[C@@H](C)NC[C@@H]1C` [Example 68, 1-((4-(5-chloro-2-(((2S,5R)-2,5-dimethylpiperazin-1-yl)methyl)-3-methylphenyl)thieno[3,2-d]pyrimidin-6-yl)methyl)pyrrolidine-2,5-dione] showed an IC50 of 10 to 100 nM.
For `Cc1cc(Cl)cc(-c2ccnc3cc(CN4C(=O)CCC4C(F)(F)F)sc23)c1CC1CNCCO1` (centres unmarked) [Example 114, 1-((7-(5-chloro-3-methyl-2-(morpholin-2-ylmethyl)phenyl)thieno[3,2-b]pyridin-2-yl)methyl)-5-(trifluoromethyl)pyrrolidin-2-one], the IC50 was 10 to 100 nM.
In the case of `Cc1cc(Cl)cc(-c2ccnc3cc(Cn4c(=O)ccn(CC(F)(F)F)c4=O)sc23)c1CN1CCNCC1` [Example 2, 3-((7-(5-chloro-3-methyl-2-(piperazin-1-ylmethyl)phenyl)thieno[3,2-b]pyridin-2-yl)methyl)-1-(2,2,2-trifluoroethyl)pyrimidine-2,4(1H,3H)-dione], the IC50 is reported as < 10 nM.
In the case of `Cc1cc(Cl)cc(-c2ncnc3cc(CN4C(=O)C5C(C4=O)C5(C)C)sc23)c1C[C@@H]1CNCCO1` (stereo partly drawn) [Example 196, 3-((4-(5-chloro-3-methyl-2-(((R)-morpholin-2-yl)methyl)phenyl)thieno[3,2-d]pyrimidin-6-yl)methyl)-6,6-dimethyl-3-azabicyclo[3.1.0]hexane-2,4-dione], the IC50 is reported as < 10 nM.
In the case of `Cc1cc(Cl)cc(-c2ncnc3cc(CN4CCCCC4=O)sc23)c1CN1C[C@@H](C)NC[C@@H]1C` [Example 82, 1-((4-(5-chloro-2-(((2S,5R)-2,5-dimethylpiperazin-1-yl)methyl)-3-methylphenyl)thieno[3,2-d]pyrimidin-6-yl)methyl)piperidin-2-one], the IC50 is reported as > 100 nM.
With `Cc1cc(Cl)cc(-c2ccnc3cc(Cn4c(=O)ccn(CC(F)(F)F)c4=O)sc23)c1CN1CCNCC1=O` [Example 4, 3-((7-(5-chloro-3-methyl-2-((2-oxopiperazin-1-yl)methyl)phenyl)thieno[3,2-b]pyridin-2-yl)methyl)-1-(2,2,2-trifluoroethyl)pyrimidine-2,4(1H,3H)-dione] the IC50 was > 100 nM.
For `Cc1cc(Cl)cc(-c2ccnc3cc(CN4C(=O)C5CC5C4=O)sc23)c1C[C@@H]1CNC[C@@H](C)O1` (stereo partly drawn) [Example 99, 3-((7-(5-chloro-3-methyl-2-(((2R,6R)-6-methylmorpholin-2-yl)methyl)phenyl)thieno[3,2-b]pyridin-2-yl)methyl)-3-azabicyclo[3.1.0]hexane-2,4-dione], the IC50 was < 10 nM.
In the case of `Cc1cc(Cl)cc(-c2ncnc3cc(CN4C(=O)CCC4=O)sc23)c1C[C@@H]1CNCC(C)(C)O1` [Example 215, (R)-1-((4-(5-chloro-2-((6,6-dimethylmorpholin-2-yl)methyl)-3-methylphenyl)thieno[3,2-d]pyrimidin-6-yl)methyl)pyrrolidine-2,5-dione], the IC50 is reported as < 10 nM.
With `C[C@H]1CNCCN1Cc1ccc(F)cc1-c1ncnc2cc(CN3C(=O)C4CC4C3=O)sc12` (stereo partly drawn) [Example 63, 3-((4-(5-fluoro-2-(((S)-2-methylpiperazin-1-yl)methyl)phenyl)thieno[3,2-d]pyrimidin-6-yl)methyl)-3-azabicyclo[3.1.0]hexane-2,4-dione] the IC50 was > 100 nM.
In the case of `Cc1cc(Cl)cc(-c2ccnc3cc(CN4C(=O)CCC4=O)sc23)c1CC1CNCC2(CCC2)O1` (centres unmarked) [Example 143, 1-((7-(2-((5-oxa-8-azaspiro[3.5]nonan-6-yl)methyl)-5-chloro-3-methylphenyl)thieno[3,2-b]pyridin-2-yl)methyl)pyrrolidine-2,5-dione], the IC50 is reported as < 10 nM.
In the case of `Cc1cc(Cl)cc(-c2ncnc3cc(CN4C(=O)C5CC5C4=O)sc23)c1CC1CNCC2(COC2)O1` (centres unmarked) [Example 220, 3-((4-(2-((2,5-dioxa-8-azaspiro[3.5]nonan-6-yl)methyl)-5-chloro-3-methylphenyl)thieno[3,2-d]pyrimidin-6-yl)methyl)-3-azabicyclo[3.1.0]hexane-2,4-dione], the IC50 is reported as < 10 nM.
Molecule `Cc1cc(Cl)cc(-c2ncnc3cc(CN4C(=O)C5CC5C4=O)sc23)c1C[C@H]1CNCC(C)(C)O1` (stereo partly drawn) [Example 213, 3-((4-(5-chloro-2-(((S)-6,6-dimethylmorpholin-2-yl)methyl)-3-methylphenyl)thieno[3,2-d]pyrimidin-6-yl)methyl)-3-azabicyclo[3.1.0]hexane-2,4-dione] has an IC50 of 10 to 100 nM.
`Cc1cc(Cl)cc(-c2ncnc3cc(CN4CC(C(F)F)CC4=O)sc23)c1C[C@@H]1CNCC(C)(C)O1` (stereo partly drawn) [Example 228, 1-((4-(5-chloro-2-(((R)-6,6-dimethylmorpholin-2-yl)methyl)-3-methylphenyl)thieno[3,2-d]pyrimidin-6-yl)methyl)-4-(difluoromethyl)pyrrolidin-2-one] gave an IC50 of 10 to 100 nM.
Molecule `Cc1cc(Cl)cc(-c2ccnc3cc(CN4C(=O)CCC4=O)sc23)c1CN1CCNCC1C(F)F` (centres unmarked) [Example 16, 1-((7-(5-chloro-2-((2-(difluoromethyl)piperazin-1-yl)methyl)-3-methylphenyl)thieno[3,2-b]pyridin-2-yl)methyl)pyrrolidine-2,5-dione] has an IC50 of 10 to 100 nM.
With `Cc1cc(Cl)cc(-c2ncnc3cc(CN4C(=O)CCN(CCO)C4=O)sc23)c1C[C@@H]1CNCC(C)(C)O1` [Example 271, (R)-3-((4-(5-chloro-2-((6,6-dimethylmorpholin-2-yl)methyl)-3-methylphenyl)thieno[3,2-d]pyrimidin-6-yl)methyl)-1-(2-hydroxyethyl)dihydropyrimidine-2,4(1H,3H)-dione] the IC50 was < 10 nM.
In the case of `Cc1cc(Cl)cc(-c2ncnc3cc(CN4C(=O)CCC4=O)sc23)c1CC1CNCCO1` (centres unmarked) [Example 153, 1-((4-(5-chloro-3-methyl-2-(morpholin-2-ylmethyl)phenyl)thieno[3,2-d]pyrimidin-6-yl)methyl)pyrrolidine-2,5-dione], the IC50 is reported as < 10 nM.
With `Cc1cc(Cl)cc(-c2ncnc3cc(Cn4c(=O)ccn(C5CCC5)c4=O)sc23)c1CC1CNCCO1` (centres unmarked) [Example 166, 3-((4-(5-chloro-3-methyl-2-(morpholin-2-ylmethyl)phenyl)thieno[3,2-d]pyrimidin-6-yl)methyl)-1-cyclobutylpyrimidine-2,4(1H,3H)-dione] the IC50 was < 10 nM.
For `Cc1cc(Cl)cc(-c2ccnc3cc(CN4C(=O)C5C(C4=O)C5(C)C)sc23)c1CC1OCCNC1=O` (centres unmarked) [Example 101, 3-((7-(5-chloro-3-methyl-2-((3-oxomorpholin-2-yl)methyl)phenyl)thieno[3,2-b]pyridin-2-yl)methyl)-6,6-dimethyl-3-azabicyclo[3.1.0]hexane-2,4-dione], the IC50 was 10 to 100 nM.
With `C[C@@H]1CN(Cc2c(Cl)cc(Cl)cc2-c2ncnc3cc(CN4C(=O)C5CC5C4=O)sc23)[C@@H](C)CN1` (stereo partly drawn) [Example 75, 3-((4-(3,5-dichloro-2-(((2S,5R)-2,5-dimethylpiperazin-1-yl)methyl)phenyl)thieno[3,2-d]pyrimidin-6-yl)methyl)-3-azabicyclo[3.1.0]hexane-2,4-dione] the IC50 was < 10 nM.
`CC1(C)C2C(=O)N(Cc3cc4ncnc(-c5cc(Cl)cc(Cl)c5CC5CNCCO5)c4s3)C(=O)C21` (centres unmarked) [Example 226, 3-((4-(3,5-dichloro-2-(morpholin-2-ylmethyl)phenyl)thieno[3,2-d]pyrimidin-6-yl)methyl)-6,6-dimethyl-3-azabicyclo[3.1.0]hexane-2,4-dione] was tested, and the IC50 was < 10 nM.
For `Cc1cc(Cl)cc(-c2ccnc3cc(CN4C(=O)C5C(C4=O)C5(C)C)sc23)c1CN1CCNCC1` (centres unmarked) [Example 6, 3-((7-(5-chloro-3-methyl-2-(piperazin-1-ylmethyl)phenyl)thieno[3,2-b]pyridin-2-yl)methyl)-6,6-dimethyl-3-azabicyclo[3.1.0]hexane-2,4-dione], the IC50 was 10 to 100 nM.
With `Cc1cc(Cl)cc(-c2ncnc3cc(CN4C(=O)C5CC5C4=O)sc23)c1C[C@H]1OCCN[C@@H]1C` (stereo partly drawn) [Example 160, 3-((4-(5-chloro-3-methyl-2-(((2R,3R)-3-methylmorpholin-2-yl)methyl)phenyl)thieno[3,2-d]pyrimidin-6-yl)methyl)-3-azabicyclo[3.1.0]hexane-2,4-dione] the IC50 was < 10 nM.
